Experimental data: US10202370B2, “Benzimidazole derivatives as selective proteine kinase inhibitors” (AB SCIENCE, priority 2013, dated 2019)

Target: c-kit WT (Homo sapiens (Human), UniProt P10721)
Experiment: Proliferation assay (CellTiter-Blue) on BaF3 Kit WT cell line
Format: cell-based
Conditions: BaF3 Kit WT cell line (murine Ba/F3 expressing Human Kit WT, with murine SCF), 48 hours
Procedure, shortened: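 Ba/F3 cells expressing human Kit WT, maintained in RPMI/10% FCS with 250 ng/ml murine SCF, were seeded at 2.10^4 cells/well and exposed to ½ serial dilutions (0–10 μM) for 48 h at 37° C. Viability was measured by CellTiter-Blue fluorescence (544Ex/590Em, 4 h) in triplicate as % of untreated proliferation.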

c-kit WT, sequence (P10721 26-976): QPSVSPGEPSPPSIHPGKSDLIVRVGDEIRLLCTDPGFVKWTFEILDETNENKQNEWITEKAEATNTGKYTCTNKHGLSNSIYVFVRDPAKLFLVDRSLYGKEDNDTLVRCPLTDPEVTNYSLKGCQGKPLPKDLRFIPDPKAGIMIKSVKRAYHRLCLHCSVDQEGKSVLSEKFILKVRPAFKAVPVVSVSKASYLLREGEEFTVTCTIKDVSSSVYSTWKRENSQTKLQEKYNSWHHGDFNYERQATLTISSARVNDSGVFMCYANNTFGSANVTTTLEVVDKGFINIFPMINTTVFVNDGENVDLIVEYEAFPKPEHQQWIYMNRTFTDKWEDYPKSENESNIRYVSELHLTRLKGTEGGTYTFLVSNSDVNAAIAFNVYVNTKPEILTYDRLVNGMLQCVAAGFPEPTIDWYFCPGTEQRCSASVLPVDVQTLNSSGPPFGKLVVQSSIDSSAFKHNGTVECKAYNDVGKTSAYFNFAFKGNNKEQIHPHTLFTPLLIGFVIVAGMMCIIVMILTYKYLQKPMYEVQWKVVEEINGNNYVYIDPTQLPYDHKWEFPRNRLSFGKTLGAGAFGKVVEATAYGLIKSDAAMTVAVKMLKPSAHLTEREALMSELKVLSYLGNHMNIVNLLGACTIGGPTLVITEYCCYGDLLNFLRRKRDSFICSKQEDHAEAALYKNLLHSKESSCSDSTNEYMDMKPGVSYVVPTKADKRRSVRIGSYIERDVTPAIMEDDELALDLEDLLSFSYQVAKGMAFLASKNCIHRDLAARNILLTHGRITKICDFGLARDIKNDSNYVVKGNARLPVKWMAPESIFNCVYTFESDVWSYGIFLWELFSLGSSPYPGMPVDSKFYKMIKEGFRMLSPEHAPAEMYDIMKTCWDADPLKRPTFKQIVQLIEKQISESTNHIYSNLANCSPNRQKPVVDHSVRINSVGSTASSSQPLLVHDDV

| SMILES | IC50 [nM] |
| --- | --- |
| Cc1cc2nc(-c3cccc(OC(F)(F)F)c3)n(C)c2cc1Nc1nc(-c2cccnc2)cs1 [Compound 117, [3,6-Dimethyl-2-(3-trifluoromethoxy-phenyl)-3H-benzoimidazol-5-yl]-(4-pyridin-3-yl-thiazol-2-yl)-amine] | 1000 to 10000 |
| Cc1cc2[nH]c(-c3cncn3C)nc2cc1Nc1nc(-c2ccncc2)cs1 [Compound 080, [6-Methyl-2-(3-methyl-3H-imidazol-4-yl)-1H-benzoimidazol-5-yl]-(4-pyridin-4-yl-thiazol-2-yl)-amine] | 1000 to 10000 |
| Cc1cc2c(cc1Nc1nc(-c3cccnc3)cs1)nc(-c1cccc(N3CCN(C)CC3)c1)n2C [Compound 095, {1,6-Dimethyl-2-[3-(4-methyl-piperazin-1-yl)-phenyl]-1H-benzoimidazol-5-yl}-(4-pyridin-3-yl-thiazol-2-yl)-amine] | 1000 to 10000 |
| Cc1cc2nc(-c3ccc(Cl)cc3)[nH]c2cc1Nc1nc(-c2cccnc2)cs1 [Compound 059, [2-(4-Chloro-phenyl)-6-methyl-1H-benzoimidazol-5-yl]-(4-pyridin-3-yl-thiazol-2-yl)-amine] | 1000 to 10000 |
| Cc1cc2nc(-c3ccc(F)cc3)[nH]c2cc1Nc1nc(-c2cccnc2)cs1 [Compound 060, [2-(4-Fluoro-phenyl)-6-methyl-1H-benzoimidazol-5-yl]-(4-pyridin-3-yl-thiazol-2-yl)-amine] | 1000 to 10000 |
| Cc1cc2nc(-c3cccc(C(F)F)c3)n(C)c2cc1Nc1nc(-c2cccnc2)cs1 [Compound 113, [2-(3-Difluoromethyl-phenyl)-3,6-dimethyl-3H-benzoimidazol-5-yl]-(4-pyridin-3-yl-thiazol-2-yl)-amine] | 1000 to 10000 |
| CCS(=O)(=O)Nc1cccc(-c2nc3cc(Nc4nc(-c5ccncc5)cs4)c(C)cc3n2C)c1 [Compound 134, Ethanesulfonic acid {3-[1,6-dimethyl-5-(4-pyridin-4-yl-thiazol-2-ylamino)-1H-benzoimidazol-2-yl]-phenyl}-amide] | 1000 to 10000 |
| CCn1c(-c2cccc(C(F)(F)F)c2)nc2cc(Nc3nc(-c4cccnc4)cs3)c(C)cc21 [Compound 110, [1-Ethyl-6-methyl-2-(3-trifluoromethyl-phenyl)-1H-benzoimidazol-5-yl]-(4-pyridin-3-yl-thiazol-2-yl)-amine] | ≤ 1000 |
| Cc1cc2nc(-c3cccc(C(F)F)c3)[nH]c2cc1Nc1nc(-c2ccc(C#N)cc2)cs1 [Compound 069, 4-{2-[2-(3-Difluoromethyl-phenyl)-6-methyl-3H-benzoimidazol-5-ylamino]-thiazol-4-yl}-benzonitrile] | ≤ 1000 |
| Cc1cc2nc(Cc3ccccc3)[nH]c2cc1Nc1nc(-c2cccnc2)cs1 [Compound 022, (2-Benzyl-6-methyl-3H-benzoimidazol-5-yl)-(4-pyridin-3-yl-thiazol-2-yl)-amine] | 1000 to 10000 |
| Cc1cc2c(cc1Nc1nc(-c3ccncc3)cs1)nc(-c1cccc(N(C)C)c1)n2C [Compound 133] | ≤ 1000 |
| Cc1cc2nc(-c3cccc(C(F)F)c3)[nH]c2cc1Nc1nc(-c2cncnc2)cs1 [Compound 061, [2-(3-Difluoromethyl-phenyl)-6-methyl-3H-benzoimidazol-5-yl]-(4-pyrimidin-5-yl-thiazol-2-yl)-amine] | ≤ 1000 |
| Cc1cc2[nH]c(-c3cccc(C(C)C)c3)nc2cc1Nc1nc(-c2cccnc2)cs1 [Compound 136, [2-(3-Isopropyl-phenyl)-6-methyl-1H-benzoimidazol-5-yl]-(4-pyridin-3-yl-thiazol-2-yl)-amine] | ≤ 1000 |
| Cc1cc2nc(-c3cccc(C(F)(F)F)c3)[nH]c2cc1Nc1nc(-c2ccncc2)cs1 [Compound 033, [6-Methyl-2-(3-trifluoromethyl-phenyl)-3H-benzoimidazol-5-yl]-(4-pyridin-4-yl-thiazol-2-yl)-amine] | ≤ 1000 |
| CCn1c(-c2cccc(C(F)(F)F)c2)nc2cc(Nc3nc(-c4ccncc4)cs3)c(C)cc21 [Compound 105, [1-Ethyl-6-methyl-2-(3-trifluoromethyl-phenyl)-1H-benzoimidazol-5-yl]-(4-pyridin-4-yl-thiazol-2-yl)-amine] | ≤ 1000 |
| Cc1cc2nc(-c3cccc(OCCN(C)C)c3)[nH]c2cc1Nc1nccc(-c2cccnc2)n1 [Compound 016, {2-[3-(2-Dimethylamino-ethoxy)-phenyl]-6-methyl-3H-benzoimidazo1-5-yl}-(4-pyridin-3-yl-pyrimidin-2-yl)-amine] | 1000 to 10000 |
| Cc1cc2nc(-c3cc(CN4CCOCC4)cc(C(F)(F)F)c3)[nH]c2cc1Nc1nccc(-c2cccnc2)n1 [Compound 028] | ≤ 1000 |
| Cc1cc2nc(Cc3cccc(C(F)(F)F)c3)[nH]c2cc1Nc1ncc(-c2ccncc2)o1 [Compound 051, [6-Methyl-2-(3-trifluoromethyl-benzyl)-3H-benzoimidazol-5-yl]-(5-pyridin-4-yl-oxazol-2-yl)-amine] | 1000 to 10000 |
| Cc1cc2nc(-c3cc(CN4CCN(C)CC4)cc(-c4cnco4)c3)[nH]c2cc1Nc1nccc(-c2cccnc2)n1 [Compound 039, {6-Methyl-2-[3-(4-methyl-piperazin-1-ylmethyl)-5-oxazol-5-yl-phenyl]-3H-benzoimidazol-5-yl}-(4-pyridin-3-yl-pyrimidin-2-yl)-amine] | 1000 to 10000 |
| Cc1cccc(-c2nc3cc(C)c(Nc4nc(-c5cncnc5)cs4)cc3[nH]2)c1 [Compound 066, (6-Methyl-2-m-tolyl-1H-benzoimidazol-5-yl)-(4-pyrimidin-5-yl-thiazol-2-yl)-amine] | 1000 to 10000 |
| Cc1cc2nc(-c3cccc(F)c3)[nH]c2cc1Nc1nccc(-c2cccnc2)n1 [Compound 019, [2-(3-Fluoro-phenyl)-6-methyl-3H-benzoimidazol-5-yl]-(4-pyridin-3-yl-pyrimidin-2-yl)-amine] | 1000 to 10000 |
| Cc1cccc(-c2nc3cc(C)c(Nc4nc(-c5cccnc5)cs4)cc3[nH]2)c1 [Compound 011, (6-Methyl-2-m-tolyl-3H-benzoimidazol-5-yl)-(4-pyridin-3-yl-thiazol-2-yl)-amine] | ≤ 1000 |
| Cc1cc2c(cc1Nc1nc(-c3cccnc3)cs1)nc(-c1cccc(C(F)(F)F)c1)n2C [Compound 085, [1,6-Dimethyl-2-(3-trifluoromethyl-phenyl)-1H-benzoimidazol-5-yl]-(4-pyridin-3-yl-thiazol-2-yl)-amine] | ≤ 1000 |

Next, values leading:

| IC50 [nM] | SMILES |
| --- | --- |
| ≤ 1000 | Cc1cc2nc(-c3cccc(C#N)c3)[nH]c2cc1Nc1nc(-c2cccnc2)cs1 [Compound 010, 3-[5-Methyl-6-(4-pyridin-3-yl-thiazol-2-ylamino)-1H-benzoimidazol-2-yl]-benzonitrile] |
| ≤ 1000 | Cc1cc2[nH]c(-c3cccc(C(C)(C)C)c3)nc2cc1Nc1nc(-c2cccnc2)cs1 [Compound 137, [2-(3-tert-Butyl-phenyl)-6-methyl-1H-benzoimidazol-5-yl]-(4-pyridin-3-yl-thiazol-2-yl)-amine] |
| ≤ 1000 | Cc1cc2c(cc1Nc1nc(-c3ccncc3)cs1)nc(-c1ccc(C(F)F)cc1)n2C [Compound 094, [2-(4-Difluoromethyl-phenyl)-1,6-dimethyl-1H-benzoimidazol-5-yl]-(4-pyridin-4-yl-thiazol-2-yl)-amine] |
| ≤ 1000 | Cc1cc2c(cc1Nc1nc(-c3ccncc3)cs1)nc(-c1cccc(C(C)(C)C)c1)n2C [Compound 152, [2-(3-tert-Butyl-phenyl)-1,6-dimethyl-1H-benzoimidazol-5-yl]-(4-pyridin-4-yl-thiazol-2-yl)-amine] |
| ≤ 1000 | Cc1cc2nc(-c3cccc(OC(F)(F)F)c3)[nH]c2cc1Nc1nc(-c2ccncc2)cs1 [Compound 047, [6-Methyl-2-(3-trifluoromethoxy-phenyl)-3H-benzoimidazol-5-yl]-(4-pyridin-4-yl-thiazol-2-yl)-amine] |
| ≤ 1000 | Cc1cc2c(cc1Nc1nc(-c3ccncc3)cs1)nc(-c1cccc(C(F)F)c1)n2C(C)C [Compound 100, [2-(3-Difluoromethyl-phenyl)-1-isopropyl-6-methyl-1H-benzoimidazol-5-yl]-(4-pyridin-4-yl-thiazol-2-yl)-amine] |
| ≤ 1000 | C#Cc1cccc(-c2nc3cc(Nc4nc(-c5ccc(C#N)cc5)cs4)c(C)cc3[nH]2)c1 [Compound 141, 4-{2-[2-(3-Ethynyl-phenyl)-6-methyl-1H-benzoimidazol-5-ylamino]-thiazol-4-yl}-benzonitrile] |
| ≤ 1000 | Cc1cc2nc(-c3cccc(C(F)F)c3)[nH]c2cc1Nc1nc(-c2cccc(C#N)c2)cs1 [Compound 127, 3-{2-[2-(3-Difluoromethyl-phenyl)-6-methyl-3H-benzoimidazol-5-ylamino]-thiazol-4-yl}-benzonitrile] |
| ≤ 1000 | Cc1cc2[nH]c(-c3cc(F)cc(C(F)(F)F)c3)nc2cc1Nc1nc(-c2ccncc2)cs1 [Compound 149, [2-(3-Fluoro-5-trifluoromethyl-phenyl)-6-methyl-1H-benzoimidazol-5-yl]-(4-pyridin-4-yl-thiazol-2-yl)-amine] |
| ≤ 1000 | FC(F)(F)Oc1cccc(-c2nc3cc(Nc4nc(-c5cccnc5)cs4)ccc3[nH]2)c1 [Compound 089, (4-Pyridin-3-yl-thiazol-2-yl)-[2-(3-trifluoromethoxy-phenyl)-1H-benzoimidazol-5-yl]-amine] |
| ≤ 1000 | Cc1cccc(-c2nc3cc(Nc4nc(-c5cccc(C#N)c5)cs4)c(C)cc3[nH]2)c1 [Compound 129, 3-[2-(6-Methyl-2-m-tolyl-1H-benzoimidazol-5-ylamino)-thiazol-4-yl]-benzonitrile] |
| ≤ 1000 | CCn1c(-c2cccc(C(F)F)c2)nc2cc(Nc3nc(-c4ccncc4)cs3)c(C)cc21 [Compound 103] |
| ≤ 1000 | Cc1cc2nc(-c3cccc(C(F)(F)F)c3)[nH]c2cc1Nc1nccc(-c2cccnc2)n1 [Compound 008] |
| ≤ 1000 | Cc1cc2nc(-c3ccc(C)c(C(F)(F)F)c3)[nH]c2cc1Nc1nccc(-c2cccnc2)n1 [Compound 041, [6-Methyl-2-(4-methyl-3-trifluoromethyl-phenyl)-3H-benzoimidazol-5-yl]-(4-pyridin-3-yl-pyrimidin-2-yl)-amine] |
